Results from patent US20140155445A1, “Compounds and Methods for Treating Cancer and Diseases of the Central Nervous System” (Osta Biotechnologies Inc., priority 2007, published 2014).
“Also recorded” adds a separate entry of the source. Where two headings read alike, the source gives them in different places.

How the values were obtained:
[1] = target: T1, HO-1 (rat spleen) (Rattus norvegicus, UniProt P06762); assay: HO enzymatic activity in rat spleen microsomal fraction (CO formed from methemalbumin, gas chromatography); assay type: biochemical; details: rat spleen microsomes; average ± standard deviation of replicate experiments; read-out: IC50 HO-1 (rat spleen)/μM
T1 construct: Spleen microsomes were used as a source of HO-1; from tissue; host or cells: spleen microsomal fraction of adult male Sprague-Dawley rats
T1 sequence (P06762 1-289): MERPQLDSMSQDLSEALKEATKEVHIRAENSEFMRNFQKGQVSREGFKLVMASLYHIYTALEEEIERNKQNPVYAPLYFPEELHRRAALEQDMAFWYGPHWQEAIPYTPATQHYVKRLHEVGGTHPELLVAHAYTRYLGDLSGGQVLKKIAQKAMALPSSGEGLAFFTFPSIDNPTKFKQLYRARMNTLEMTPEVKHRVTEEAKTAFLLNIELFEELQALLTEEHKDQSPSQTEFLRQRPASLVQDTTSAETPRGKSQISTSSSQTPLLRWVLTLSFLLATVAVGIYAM

[2] = target: T2, HO-2 (rat brain) (Rattus norvegicus, UniProt P23711); assay: HO enzymatic activity in rat brain microsomal fraction (CO formed from methemalbumin, gas chromatography); assay type: biochemical; details: rat brain microsomes; average ± standard deviation of replicate experiments; hydrochloride; read-out: IC50 HO-2 (rat brain)/μM
T2 construct: brain microsomes were used as a source of HO-2; from tissue; host or cells: brain microsomal fraction of adult male Sprague-Dawley rats
T2 sequence (P23711 1-315): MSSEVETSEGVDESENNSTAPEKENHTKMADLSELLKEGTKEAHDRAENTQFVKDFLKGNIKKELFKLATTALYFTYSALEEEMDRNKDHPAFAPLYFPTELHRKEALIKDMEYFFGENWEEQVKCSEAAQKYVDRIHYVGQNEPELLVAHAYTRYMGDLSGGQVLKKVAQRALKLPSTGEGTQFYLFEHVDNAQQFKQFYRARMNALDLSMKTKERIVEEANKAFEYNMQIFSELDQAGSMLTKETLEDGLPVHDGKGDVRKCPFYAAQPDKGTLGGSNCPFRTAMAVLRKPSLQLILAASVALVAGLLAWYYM

[3] = tested on: hHO-1 transfected primary rat astroglial cultures; assay: Protein carbonyl ELISA in hHO-1-transfected primary rat astroglia (whole-cell and mitochondrial compartments); assay type: cell-based
Description: Cells were grown in Ham's F12 and high glucose DMEM (50:50 v/v) supplemented with 10 mM HEPES, 5% heat-inactivated horse serum, 5% heat-inactivated fetal bovine serum, and penicillin-streptomycin (50 U/mL and 50 μg/mL, respectively).
Upon reaching >90% confluence, 1×10^6 cells were transiently transfected with 4.0 μg of plasmid DNA-Lipofectamine 2000 complex using Lipofectamine 2000 method according to manufacturer instructions (Invitrogen). […] 12 μg of plasmid DNA and 16 μl of Lipofectamine 2000 reagent were diluted in 1.5 mL opti-MEM I reduced serum medium and incubated for 5 minutes at room temperature with gentle mixing. The two solutions were combined, incubated at room temperature for 20 minutes to promote formation of DNA-lipid complexes and administered to the cells. 2 mL opti-MEM I reduced serum medium was added to the flasks to ensure coverage of the monolayer by the transfection mixture. Following incubation for 6 hours at 37° C., the transfection mixture was replaced with 10 mL of complete media without antibiotics.
The cells were sonicated (Sonics & Materials, Danbury, Conn.) at a power level of 50 for 3×20 s in a cooled water bath. […] Whole-cell and mitochondrial preparations were assayed for protein carbonyls as described below.
Protein carbonyls were reacted with 2,4-dinitrophenylhydrazine (DNP) and the hydrazone adducts were detected with anti-DNP antisera. Quantification was achieved by comparison with oxidized BSA standards. Oxidized (carbonylated) BSA was prepared by reacting natural BSA (at 50 mg/mL in PBS) with hypochlorous acid (5 mM) for 1 h at 37° C., followed by overnight dialysis against PBS at 4° C. […] The pellet was resuspended in 2 mL of same buffer, sonicated on ice 2×15 s at 20 W and centrifuged for 20 min at 4° C. at 1,303×g. Protein concentration of supernatant was measured with the RC DC protein assay based on the Lowry protocol (Bio-Rad Laboratories, Hercules, Calif.). All samples were adjusted to 4.0 mg protein/mL. […] Five microliters aliquots of each reaction mixture were mixed with 1 mL PBS and 200 μL replicates were added per well to 96-well immunoplates and incubated overnight at 4° C. After washing with PBS, nonspecific binding sites were blocked with 0.1% Tween 20 in PBS. […] A 6-point standard curve of reduced and oxidized BSA was generated for each plate analyzed. Specific absorbance for each sample was calculated by subtracting basal absorbance of the DNP reagent from the total absorbance.

[4] = tested on: OVCAR-3 (human ovarian carcinoma); assay: Ovarian carcinoma model OVCAR-3 in SCID mice; assay type: in vivo; details: QC-56 60 mg/kg/ip
Excerpt: • Species and strain: […] OVCAR-3 (human ovarian carcinoma). […] Control groups received the vehicle alone.

[5] = tested on: PC-3 (human prostate carcinoma); assay: Prostate carcinoma model PC-3 in SCID mice
Description: • Species and strain: Mouse (Mus musculus); female SCID (MDA231 and OVCAR3), male SCID (PC-3, HCT116); male CD57 B16 mice (BL16-BL6) • Age: 6-8 weeks old. • Supplier: Charles River Laboratories, Inc., St-Constant, Quebec, Canada. • Acclimation: Mice were acclimated to laboratory conditions for approximately 1 week prior to tumor cell inoculation. • Identification: Mice were identified by ear punch combination. • Housing: Mice were housed in groups of 3-5 in a designated animal facility with a temperature of 22° C., a relative humidity of 40-50%, and a 12 hr light/dark cycle.
PC-3 (human prostate carcinoma). These cells were originally received from the ATCC. Early passage cells (tested free of mycoplasma) were grown to 60% confluence in DMEM medium supplemented with 10% fetal bovine serum, and antibiotics. Cell harvesting was performed using trypsin-EDTA solution.
Exponentially growing cells were harvested using trypsin-EDTA solution. […] Cell viability was confirmed by trypan blue staining. […] One to 2 millions cells suspended in 0.1 mL phosphate buffer solution was implanted into the mammary fat pad (MCF7) or subcutaneously into the axillary region of the right flank of recipient SCID mice. All animals were inoculated at the same site.
Mice were subjected to general examination on daily basis. […] Control groups received the vehicle alone. Chemotherapy drugs were also given by intraperitoneal route according to the schedule described below.
Primary tumor growth was monitored every second to fourth day using calipers. Relative tumor volume (cm^3) was determined by the formula:
Body weights were monitored every third to fifth day. Animals experiencing signs of discomfort were sacrificed immediately (in some cases they were replaced by spared mice). […] Mice were sacrificed by cervical dislocation and immediately subjected to full autopsy.

For `Brc1ccc(CCC2(Cn3ccnc3)OCCO2)cc1.Cl` [QC-56, 1-((2-(2-(4-Bromophenyl)ethyl)-1,3-dioxolan-2-yl)methyl)-1H-imidazole hydrochloride], the IC50 [1] was 1.9 ± 0.2 µM, the IC50 [2] was ≥ 100 µM and the “oxidative protein damage (protein carbonyls) accruing from hHO-1 transfection” value ([3]; 6.5 μM) was “significantly attenuated”. For the same compound, the “dose dependence of attenuation of oxidative protein damage” value ([3]; transiently transfected rat astroglia, hydrochloride) was “significant dose dependant attenuations; also recorded: in a dose dependent manner significantly decreased; also recorded: significant dose-dependant attenuations”, the “reduction of tumor growth” value [4] was “approximately 15%” and the “tumor size on the day of sacrifice” value ([4]; CDDP 3 mg/kg) was 1.12±0.08 cm^3. For the same compound, the tolerability (50 mg/kg, multiple administrations) was “well tolerated”, the “toxicity in combination studies” value (QC-56 60 mg/kg i.p. 4 cycles, chemotherapy drugs i.p.) was “No apparent toxicity” and the tolerability (multiple doses up to 100 mg/kg (intraperitoneal, intravenous), hydrochloride) was “well tolerated with no apparent signs of toxicity; also recorded: well tolerated”. For the same compound, the tolerability (repeated doses of 30 and 60 mg/kg i.p., SCID mice, hydrochloride) was “well tolerated at repeated doses of 30 and 60 mg/kg with minor changes in body weights with no apparent toxicity; also recorded: well tolerated”, the toxic single dose (single intraperitoneal dose, SCID mice) was > 100 mg/kg and the “Body Weights (g) d8 (mean + SE)” value ([5]; PC-3 mice, treatment day 8) was 22.30 ± 7.88 g. The “Body Weights (g) d42 (mean + SE)” value ([5]; PC-3 mice, treatment day 42) was 18.10 ± 7.38 g and the “inhibition of tumor growth compared to vehicle alone” value ([5]; QC-56 60 mg/kg/ip, Taxol 10 mg/kg) was “approximately 25%”.
